The source of these data is patent publication US20100016313A1, “INTESTINAL ALKALINE PHOSPHATASE MODULATORS AND USES THEREOF” (Burnham Institute for Medical Research, priority 2008, published 2010).

The target of the assay is T1, human IAP (Homo sapiens, UniProt P09923).
T1 construct: made in house; host or cells: COS-1 cells, transient expression from pCMV-Script; conditioned serum-free medium used as enzyme stock
T1 sequence (P09923 20-503 limits assumed): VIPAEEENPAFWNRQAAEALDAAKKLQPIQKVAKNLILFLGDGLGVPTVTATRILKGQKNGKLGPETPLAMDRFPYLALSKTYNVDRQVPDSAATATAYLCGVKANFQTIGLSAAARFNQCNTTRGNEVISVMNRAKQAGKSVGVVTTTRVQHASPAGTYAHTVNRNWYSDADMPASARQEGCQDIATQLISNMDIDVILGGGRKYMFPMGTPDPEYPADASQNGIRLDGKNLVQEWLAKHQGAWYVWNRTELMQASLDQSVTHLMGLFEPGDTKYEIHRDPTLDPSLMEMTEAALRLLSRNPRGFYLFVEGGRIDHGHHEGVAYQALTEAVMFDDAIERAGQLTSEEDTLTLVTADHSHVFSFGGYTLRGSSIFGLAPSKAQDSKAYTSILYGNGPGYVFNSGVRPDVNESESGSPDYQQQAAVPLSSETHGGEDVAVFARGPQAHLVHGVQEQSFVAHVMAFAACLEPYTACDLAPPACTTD
In words: IAP assay using CDP-Star (chemiluminescent, dose response). It counts as biochemical. Conditions: IAP modulators, Tables A-H, positive = inhibitor; for IC50: negative Hill coefficient = activator; for n (Hill coefficient): negative = activator. An excerpt: An expression vector pCMV-Script containing cDNA for human IAP, TNAP, PLAP, GCAP, mouse TNAP, dIAP, EAP or gIAP in secreted form (FLAG-tagged) is transfected into COS-1 cells for transient expression using a standard electroporation method. The GPI anchoring site is replaced by a FLAG sequence to make the proteins secreted into the media as well as to test their kinetics in a form immobilized by anti-FLAG antibody (Narisawa, et al, 2007). Medium is changed to serum free medium Opti-MEM (Invitrogen) 24 h later, and media containing secreted proteins was collected 66 hr after electroporation. Conditioned medium filtered by a 2 μm cellulose acetate membrane is supplemented with 0.1% BSA, aliquotted and stored at −80° C.
Human IAP is produced on a large scale to be used in the primary high throughput screening. For a maximum of 200,000 wells including a blank and negative control in each plate, approximately 1600 ml of the recombinant human IAP working solution (8 μl/well×200,000) is used. The working solution is a 1:80 dilution of the stock solution that has AP activity showing ΔOD405 (velocity) ˜300 in 5 min pNPP calorimetric assay. Therefore a minimum of 20 ml of the stock solution (1600÷80) is needed. An enzyme stock is prepared from ten 15 cm φ plates of COS-1 cells using 100 μg plasmid DNA [ten plates×(10 μg DNA/1×10^7 cells per 15 cm φ plate)].
Compound aliquots (4 μL at […] in 10% DMSO) are added to 8 μL of human IAP working solution of a the human IAP stock solution diluted 1:80 in assay buffer (250 mM DEA, pH 9.8, −2.5 mM MgCl2, −0.05 μM ZnCl2). The solution of substrate CDP-Star, disodium 2-chloro-5-(4-methoxyspiro{1,2-dioxetane-3,2′(5′-chloro)-tricyclo[3.3.1.1]3,7 decan}-4-yl)-1-phenyl phosphate (New England Biolabs), (8 μL of 125 μM in water) is added to each well. […] Dispensing of human IAP working solution and CDP-Star is processed using a WellMate bulk dispenser (Matrix). Plates (white 384-well small volume Greiner 784075) are incubated at room temperature for 30 min, and the luminescence signal is measured using a PerkinElmer EnVision multi-mode plate reader. L-Phenylalanine (1 mM final concentration) and 2% DMSO is utilized as an inhibition control and blank, respectively. Data analysis is processed using CBIS software (ChemInnovations, Inc).
The compound is diluted ([…] to 0.03 mM) and incubated with the human IAP enzyme for 30 min prior to addition of substrate. At the same time, human TNAP, human PLAP, human GCAP, mouse TNAP, mouse dIAP, mouse EAP and mouse gIAP is tested to determine enzyme specificity.

The IC50 is the concentration at which inhibition is half-maximal. `COc1ccc(OC)c(S(=O)(=O)Nc2cnc3ccccc3c2)c1` [Compound G2, 2,5-dimethoxy-N-(quinolin-3-yl)benzenesulfonamide]: the IC50 is over 100 µM.

Take `O=C(O)c1cc(-c2ccccc2Cl)[nH]n1` [Compound A1, 5-(2-chlorophenyl)-1H-pyrazole-3-carboxylic acid]: the “n (Hill coefficient)” value came out at 0.9625.

With `Cc1ccc(-c2cc(C(=O)O)[nH]n2)cc1C` [Compound B8, 3-(3,4-dimethylphenyl)-1H-pyrazole-5-carboxylic acid], the IC50 was over 100 µM.

Take `O=C(O)c1cc(-c2ccc3c(c2)OCCO3)n[nH]1` [Compound B11, 3-(2,3-dihydrobenzo[b][1,4]dioxyin-6-yl)-1H-pyrazole-5-carboxylic acid]: the IC50 is over 100 µM.

The compound `Nc1ccc(-c2cc(C(=O)O)n[nH]2)cc1` [Compound A5, 5-(4-aminophenyl)-1H-pyrazole-3-carboxylic acid] gave an IC50 of over 100 µM.

`Cn1nc(C(=O)O)cc1-c1ccc(F)cc1` [Compound D2, 5-(4-fluorophenyl)-1-methyl 1H-pyrazole-3 carboxylic acid]: the IC50 is over 100 µM.

Compound `COC(=O)c1cc(-c2ccc(OC)cc2)[nH]n1` [Compound B14, methyl 3-(4-methoxyphenyl)-1H-pyrazole-5-carboxylate] came in with an IC50 of over 100 µM.

Compound `CCOC(=O)c1[nH]nc2c1COc1ccccc1-2` [Compound E3, ethyl 2,4-dihydrochromeno[3,4-c]pyrazole-3-carboxylate] yielded an IC50 of over 100 µM.

On to `O=C(O)c1cc(-c2ccc(F)cc2)n[nH]1` [Compound B4, 3-(4-fluorophenyl)-1H-pyrazole-5-carboxylic acid], for which the IC50 is over 100 µM.

For `Cc1cc(O)oc2nnc(-c3ccccc3)c1-2` [Compound E6, 4-methyl-3-phenylpyrano[2,3-c]pyrazol-6-ol], the “n (Hill coefficient)” value is given as −5 and the half-maximal inhibitory concentration (IC50) is 62.7 µM.

Regarding `COc1ccc(-c2nnc3oc(O)cc(C)c2-3)cc1` [Compound E5, 3-(4-methoxyphenyl)-4-methylpyrano[2,3-c]prazol-6-ol], the “n (Hill coefficient)” value is −1.89 and half-maximal inhibition (IC50) was put at 21.1 µM.

As to `COc1ccc(-c2n[nH]c3oc(=O)cc(C)c23)cc1` [Compound E4, 3-(4-methoxyphenyl)-4-methylpyrano[2,3-c]pyrazol-6(1H)-one], the “n (Hill coefficient)” value was −1.49 and it took 23.7 µM to reach half-maximal inhibition (IC50).

As for `COC(=O)c1cc(-c2ccc(Br)cc2)n[nH]1` [Compound A7, methyl 5-(4-bromophenyl)-1H-pyrazole-3-carboxylate], the IC50 is over 100 µM.

As for `O=C1C2CC=CCC2C(=O)N1c1nc(-c2cccnc2)n[nH]1` (stereo not drawn) [Compound F7, 2-[3-(pyridin-3-yl)-1H-1,2,4-triazol-5-yl)-3a,4,7,7a-tetrahydro-1H-isoindole-1,3(2H)-dione], the “n (Hill coefficient)” value amounted to 0.927 and the 50% inhibitory concentration (IC50) is 1.77 µM.

As for `CC(OC(=O)c1cc(-c2ccc(Br)cc2)[nH]n1)C(=O)NC(C)(C)C` (stereo not drawn) [Compound A13, 1-(tert-butylamino)-l-oxopropan-2-yl 5-(4-bromophenyl)-1H-pyrazole-3-carboxylate], the “n (Hill coefficient)” value was −1 and the midpoint of inhibition, the IC50, lay at 93.4 µM.

Take `O=C(O)c1[nH]nc2c1COc1ccccc1-2` [Compound E1, 2,4-dihydrochromeno[3,4-c]pyrazole-3-carboxylic acid]: the “n (Hill coefficient)” value is 0.533 and half-maximal inhibition (IC50) required 13.9 µM.

`Cc1ccccc1S(=O)(=O)Nc1cc2ccccc2nc1Cl` [Compound G6, N-(2-chloroquinolin-3-yl)-2-methylbenzenesulfonamide] yielded an IC50 of over 100 µM.

`Cc1c(-c2ccccc2)n[nH]c1C(=O)O` [Compound D3, 4-methyl-5-phenyl-1H-pyrazole-3-carboxylic acid] returned an IC50 of over 100 µM.

Turning to `Cn1ccnc1Cc1ncnc(Nc2ccccc2)n1` [Compound H3, 4-[(1-methyl-4H-imidazol-2-yl)methyl]-N-phenyl-1,3,5-triazin-2-amine], the “n (Hill coefficient)” value is listed as −1.32 and half-maximal inhibition (IC50) required 30.5 µM.

`O=C(O)c1cc(-c2ccc(O)cc2)n[nH]1` [Compound B1, 3-(4-hydroxyphenyl)-1H-pyrazole-5-carboxylic acid]: the “n (Hill coefficient)” value is given as 1.1 and half-maximal inhibition (IC50) required 79.2 µM.

Regarding `O=C1C2CCCCC2C(=O)N1c1ncn[nH]1` (stereo not drawn) [Compound F1, 2-(1H-1,2,4-triazol-5-yl)-hexahydro-1H-isoindole-1,3(2H)-dione], the “n (Hill coefficient)” value is −2.03 and half-maximal inhibition (IC50) was put at 13.8 µM.

In turn, `COC(=O)c1cc(-c2ccc([N+](=O)[O-])cc2)[nH]n1` [Compound A10, methyl 5-(4-nitrophenyl)-1H-pyrazole-3-carboxylate] gave an IC50 of over 100 µM.

As to `Cc1ccc(-c2cc(C(=O)O)[nH]n2)c(C)c1` [Compound B7, 3-(2,4-dimethylphenyl)-1H-pyrazole-5-carboxylic acid], the IC50 was over 100 µM.

For the compound `COc1cccc(-c2cc(C(=O)O)[nH]n2)c1` [Compound B5, 3-(3-methoxyphenyl)-1H-pyrazole-5-carboxylic acid], the IC50 is over 100 µM.

Regarding `CC(C)c1ccc(-c2cc(C(=O)O)[nH]n2)cc1` [Compound B3, 3-(4-isopropylphenyl)-1H-pyrazole-5-carboxylic acid], the “n (Hill coefficient)” value is listed as −4.38 and the IC50 is 98.3 µM.

In the case of `COC(=O)c1cc(-c2ccc3ccccc3c2)[nH]n1` [Compound C1, methyl 3-(nahthylen-2-yl)-1H-pyrazole-5-carboxylate], the IC50 is over 100 µM.

The compound `CCOC(=O)c1cc(-c2ccc(Cl)cc2)n[nH]1` [Compound B17, ethyl 3-(4-chlorophenyl)-1H-pyrazole-5-carboxylate] returned an IC50 of over 100 µM.

Turning to `O=C1C2C3C=CC(C3)C2C(=O)N1c1nc(CCc2ccccc2)n[nH]1` (stereo not drawn) [Compound F10], the “n (Hill coefficient)” value is 0.871.

Consider `O=C1C2CC=CCC2C(=O)N1c1nc(Cc2ccccc2)n[nH]1` (stereo not drawn) [Compound F8, 2-(3-benzyl-1H-1,2,4-triazol-5-yl)-3a,4,7,7a-tetrahydro-1H-isoindole-1,3(2H)-dione], for which the “n (Hill coefficient)” value turned out to be 1.28 and the IC50 turned out to be 0.503 µM.

For `O=C1C2CC=CCC2C(=O)N1c1nc(-c2ccccc2)n[nH]1` (stereo not drawn) [Compound F5, 2-(3-phenyl-1H-1,2,4-triazol-5-yl)-3a,4,7,7a-tetrahydro-1H-isoindole-1,3(2H)-dione], the “n (Hill coefficient)” value stood at 0.8895 and the midpoint of inhibition, the IC50, lay at 0.0625 µM.

In the case of `COc1ccc(Br)cc1S(=O)(=O)Nc1cnc2ccccc2c1` [Compound G1, 5-bromo-2-methoxy-N-(quinolin-3-yl)benzenesulfonamide], the “n (Hill coefficient)” value is given as 0.716.

On to `CCOC(=O)c1cc(-c2cccc(C(F)(F)F)c2)[nH]n1` [Compound A6, ethyl 5-[3-(trifluoromethyl)phenyl]-1H-pyrazole-3-carboxylate], for which the “n (Hill coefficient)” value is −1.45 and the IC50 is 45.4 µM.

`CC(C)(C)C(=O)COC(=O)c1cc(-c2ccc(Br)cc2)[nH]n1` [Compound A12, 3,3-dimethyl-2-oxobutyl 5-(4-bromophenyl)-1H-pyrazole-3-carboxylate]: the “n (Hill coefficient)” value is recorded as −1.09 and 42.8 µM corresponded to half-maximal inhibition (IC50).

Regarding `O=C(c1[nH]nc2c1COc1ccccc1-2)N1CCCC1` [Compound E2, (2,4-dihydrochromeno[3,4-c]pyrazol-3-yl)(pyrrolidin-1-yl)methanone], the IC50 was over 100 µM.
